Reference: PubChem BioAssay (NCI)
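Grown in 96-well plates, cells were treated for 48 hours with each compound at five concentrations. Insufficient inhibition: endpoint recorded as highest concentration tested. TGI: concentration producing complete growth inhibition.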

Experiments:
Assay in all cases: NCI anticancer screen, dose series, 48 h
A549 NSCLC = test system: A549 NSCLC
ACHN renal = test system: ACHN renal
CAKI-1 renal = test system: CAKI-1 renal
COLO 205 colon = test system: COLO 205 colon
HCT-15 colon = test system: HCT-15 colon
HOP-92 NSCLC = test system: HOP-92 NSCLC
NCI/ADR-RES ovarian = test system: NCI/ADR-RES ovarian
OVCAR-4 ovarian = test system: OVCAR-4 ovarian
RPMI-8226 leukemia = test system: RPMI-8226 leukemia
SK-MEL-2 melanoma = test system: SK-MEL-2 melanoma
SK-MEL-5 melanoma = test system: SK-MEL-5 melanoma
SK-OV-3 ovarian = test system: SK-OV-3 ovarian
SN12C renal = test system: SN12C renal
UACC-62 melanoma = test system: UACC-62 melanoma
KM12 colon = test system: KM12 colon
NCI-H226 lung = test system: NCI-H226 lung
SF-268 CNS = test system: SF-268 CNS
SK-MEL-28 melanoma = test system: SK-MEL-28 melanoma
MDA-MB-231 breast = test system: MDA-MB-231 breast
DU-145 prostate = test system: DU-145 prostate

In the case of `Cc1cc(-c2cscn2)c(O)c([N+](=O)[O-])c1`, the TGI (A549 NSCLC) is reported as over 100 µM, the TGI (ACHN renal) is reported as over 100 µM and the TGI (CAKI-1 renal) is reported as over 100 µM. For the same compound, the TGI (COLO 205 colon) was over 100 µM, the TGI (HCT-15 colon) was over 100 µM and the TGI (HOP-92 NSCLC) was over 100 µM. For the same compound, the TGI (NCI/ADR-RES ovarian) was over 100 µM, the TGI (OVCAR-4 ovarian) was over 100 µM and the TGI (RPMI-8226 leukemia) was over 100 µM. The TGI (SK-MEL-2 melanoma) was over 100 µM, the TGI (SK-MEL-5 melanoma) was over 100 µM and the TGI (SK-OV-3 ovarian) was 96 µM. It also gave a TGI (SN12C renal) of over 100 µM and a TGI (UACC-62 melanoma) of over 100 µM.
In the case of `C=C(C)CC(C)(c1cc2ccccc2n1C)N1CCOCC1` (centres undefined), the TGI (A549 NSCLC) is reported as over 100 µM, the TGI (ACHN renal) is reported as over 100 µM and the TGI (CAKI-1 renal) is reported as over 100 µM. It also gave a TGI (COLO 205 colon) of over 100 µM, a TGI (HCT-15 colon) of over 100 µM and a TGI (HOP-92 NSCLC) of over 100 µM. For the same compound, the TGI (KM12 colon) was over 100 µM, the TGI (NCI-H226 lung) was over 100 µM and the TGI (OVCAR-4 ovarian) was over 100 µM. For the same compound, the TGI (SF-268 CNS) was over 100 µM, the TGI (SK-MEL-2 melanoma) was over 100 µM and the TGI (SK-MEL-28 melanoma) was over 100 µM. It also gave a TGI (SK-MEL-5 melanoma) of over 100 µM, a TGI (SK-OV-3 ovarian) of over 100 µM and a TGI (SN12C renal) of over 100 µM. For the same compound, the TGI (UACC-62 melanoma) was over 100 µM.
`COC(=O)C(/C(=N/N)C(=O)Nc1cccc(O)c1)c1nc2ccccc2[nH]c1=O` (centres undefined) gave a TGI (A549 NSCLC) of over 100 µM, a TGI (ACHN renal) of over 100 µM and a TGI (CAKI-1 renal) of over 100 µM. For the same compound, the TGI (HCT-15 colon) was over 100 µM, the TGI (HOP-92 NSCLC) was over 100 µM and the TGI (KM12 colon) was over 100 µM. For the same compound, the TGI (MDA-MB-231 breast) was over 100 µM, the TGI (NCI-H226 lung) was over 100 µM and the TGI (NCI/ADR-RES ovarian) was over 100 µM. For the same compound, the TGI (OVCAR-4 ovarian) was over 100 µM, the TGI (SF-268 CNS) was over 100 µM and the TGI (SK-MEL-2 melanoma) was over 100 µM. It also gave a TGI (SK-MEL-28 melanoma) of over 100 µM, a TGI (SK-MEL-5 melanoma) of over 100 µM and a TGI (SK-OV-3 ovarian) of over 100 µM. It also gave a TGI (SN12C renal) of over 100 µM and a TGI (UACC-62 melanoma) of over 100 µM.
Compound `CC(=O)NC(CCCNC(=O)OCc1ccccc1)C(=O)O` (centres undefined) has a TGI (A549 NSCLC) of over 100 µM, a TGI (ACHN renal) of over 100 µM and a TGI (CAKI-1 renal) of over 100 µM. For the same compound, the TGI (COLO 205 colon) was over 100 µM, the TGI (HCT-15 colon) was over 100 µM and the TGI (HOP-92 NSCLC) was over 100 µM. For the same compound, the TGI (KM12 colon) was over 100 µM, the TGI (NCI-H226 lung) was over 100 µM and the TGI (OVCAR-4 ovarian) was over 100 µM. For the same compound, the TGI (RPMI-8226 leukemia) was over 100 µM, the TGI (SF-268 CNS) was over 100 µM and the TGI (SK-MEL-2 melanoma) was over 100 µM. It also gave a TGI (SK-MEL-28 melanoma) of over 100 µM, a TGI (SK-MEL-5 melanoma) of over 100 µM and a TGI (SK-OV-3 ovarian) of over 100 µM. The TGI (SN12C renal) was over 100 µM and the TGI (UACC-62 melanoma) was over 100 µM.
Compound `C=C(CO)[C@H]1Oc2ccc(C(C)=O)cc2[C@@H]1O` has a TGI (A549 NSCLC) of over 100 µM, a TGI (ACHN renal) of over 100 µM and a TGI (CAKI-1 renal) of over 100 µM. The TGI (COLO 205 colon) was over 100 µM, the TGI (DU-145 prostate) was over 100 µM and the TGI (HCT-15 colon) was over 100 µM. It also gave a TGI (KM12 colon) of over 100 µM, a TGI (MDA-MB-231 breast) of over 100 µM and a TGI (NCI-H226 lung) of over 100 µM. For the same compound, the TGI (OVCAR-4 ovarian) was over 100 µM, the TGI (RPMI-8226 leukemia) was over 100 µM and the TGI (SF-268 CNS) was over 100 µM. For the same compound, the TGI (SK-MEL-2 melanoma) was over 100 µM, the TGI (SK-MEL-28 melanoma) was over 100 µM and the TGI (SK-MEL-5 melanoma) was over 100 µM. The TGI (SK-OV-3 ovarian) was over 100 µM, the TGI (SN12C renal) was over 100 µM and the TGI (UACC-62 melanoma) was over 100 µM.
`N#C/C(C(=O)Nc1ccc(Cl)cc1)=C(/N)N1CCOCC1` was tested, and the TGI (A549 NSCLC) was over 100 µM, the TGI (ACHN renal) was over 100 µM and the TGI (CAKI-1 renal) was over 100 µM. For the same compound, the TGI (COLO 205 colon) was over 100 µM, the TGI (DU-145 prostate) was over 100 µM and the TGI (HCT-15 colon) was over 100 µM. For the same compound, the TGI (HOP-92 NSCLC) was over 100 µM, the TGI (KM12 colon) was over 100 µM and the TGI (NCI-H226 lung) was over 100 µM. It also gave a TGI (NCI/ADR-RES ovarian) of over 100 µM, a TGI (RPMI-8226 leukemia) of over 100 µM and a TGI (SK-MEL-2 melanoma) of over 100 µM. For the same compound, the TGI (SK-MEL-28 melanoma) was over 100 µM, the TGI (SK-MEL-5 melanoma) was over 100 µM and the TGI (SK-OV-3 ovarian) was over 100 µM. For the same compound, the TGI (SN12C renal) was over 100 µM and the TGI (UACC-62 melanoma) was over 100 µM.
`CCOC(=O)C1=C(c2ccccc2)N(C(C)=O)Cc2ccccc21` was tested, and the TGI (A549 NSCLC) was 93.8 µM, the TGI (ACHN renal) was 66.7 µM and the TGI (COLO 205 colon) was 32 µM. The TGI (HCT-15 colon) was over 100 µM, the TGI (HOP-92 NSCLC) was 20.7 µM and the TGI (KM12 colon) was 30.3 µM. It also gave a TGI (NCI-H226 lung) of 50.5 µM, a TGI (OVCAR-4 ovarian) of over 100 µM and a TGI (RPMI-8226 leukemia) of 38.7 µM. It also gave a TGI (SF-268 CNS) of 64.8 µM, a TGI (SK-MEL-2 melanoma) of 38.2 µM and a TGI (SK-MEL-28 melanoma) of 36.6 µM. It also gave a TGI (SK-MEL-5 melanoma) of 25.1 µM, a TGI (SK-OV-3 ovarian) of over 100 µM and a TGI (SN12C renal) of 77.1 µM. It also gave a TGI (UACC-62 melanoma) of 25.5 µM.
In the case of `CCSc1nnc(-c2ccccc2)nc1Cc1ccc(OC)cc1`, the TGI (A549 NSCLC) is reported as over 100 µM, the TGI (ACHN renal) is reported as over 100 µM and the TGI (COLO 205 colon) is reported as over 100 µM. It also gave a TGI (HCT-15 colon) of over 100 µM, a TGI (HOP-92 NSCLC) of over 100 µM and a TGI (KM12 colon) of over 100 µM. It also gave a TGI (NCI-H226 lung) of over 100 µM, a TGI (OVCAR-4 ovarian) of over 100 µM and a TGI (RPMI-8226 leukemia) of over 100 µM. For the same compound, the TGI (SF-268 CNS) was over 100 µM, the TGI (SK-MEL-2 melanoma) was over 100 µM and the TGI (SK-MEL-28 melanoma) was over 100 µM. It also gave a TGI (SK-OV-3 ovarian) of over 100 µM, a TGI (SN12C renal) of over 100 µM and a TGI (UACC-62 melanoma) of over 100 µM.
In the case of `C[N+]1(C)C[C@@H](O)C[C@@H]1C(=O)[O-]`, the TGI (A549 NSCLC) is reported as over 100 µM, the TGI (ACHN renal) is reported as over 100 µM and the TGI (COLO 205 colon) is reported as over 100 µM. It also gave a TGI (HCT-15 colon) of over 100 µM, a TGI (HOP-92 NSCLC) of over 100 µM and a TGI (KM12 colon) of over 100 µM. For the same compound, the TGI (NCI-H226 lung) was over 100 µM, the TGI (OVCAR-4 ovarian) was over 100 µM and the TGI (RPMI-8226 leukemia) was over 100 µM. The TGI (SF-268 CNS) was over 100 µM, the TGI (SK-MEL-2 melanoma) was over 100 µM and the TGI (SK-MEL-28 melanoma) was over 100 µM. For the same compound, the TGI (SK-OV-3 ovarian) was over 100 µM, the TGI (SN12C renal) was over 100 µM and the TGI (UACC-62 melanoma) was over 100 µM.
Compound `COc1ccc2nc3c([N+](=O)[O-])ccc(NCCN(C)C)c3c(NCCN(C)C)c2c1` has a TGI (A549 NSCLC) of 4.26 µM, a TGI (CAKI-1 renal) of over 10 µM and a TGI (COLO 205 colon) of over 10 µM. For the same compound, the TGI (DU-145 prostate) was over 10 µM, the TGI (HCT-15 colon) was 2.59 µM and the TGI (HOP-92 NSCLC) was over 10 µM. For the same compound, the TGI (KM12 colon) was 2.82 µM, the TGI (MDA-MB-231 breast) was 2.67 µM and the TGI (OVCAR-4 ovarian) was 1.86 µM. For the same compound, the TGI (RPMI-8226 leukemia) was 1.97 µM, the TGI (SF-268 CNS) was over 10 µM and the TGI (SK-MEL-28 melanoma) was 4.15 µM. It also gave a TGI (SK-MEL-5 melanoma) of 3.28 µM, a TGI (SK-OV-3 ovarian) of over 10 µM and a TGI (SN12C renal) of 2.78 µM. For the same compound, the TGI (UACC-62 melanoma) was over 10 µM.
With `Cc1cccc(/C=N/NC(=S)N(C)CCc2ccccn2)n1` the TGI (A549 NSCLC) was over 100 µM, the TGI (ACHN renal) was 1.15 µM and the TGI (CAKI-1 renal) was 32.7 µM. For the same compound, the TGI (COLO 205 colon) was over 100 µM, the TGI (HCT-15 colon) was over 100 µM and the TGI (HOP-92 NSCLC) was over 83.9 µM. For the same compound, the TGI (KM12 colon) was over 100 µM, the TGI (MDA-MB-231 breast) was over 100 µM and the TGI (NCI-H226 lung) was 19.6 µM. The TGI (OVCAR-4 ovarian) was over 100 µM, the TGI (RPMI-8226 leukemia) was 0.388 µM and the TGI (SF-268 CNS) was over 100 µM. It also gave a TGI (SK-MEL-2 melanoma) of over 100 µM, a TGI (SK-MEL-28 melanoma) of over 100 µM and a TGI (SK-MEL-5 melanoma) of 9.4 µM. For the same compound, the TGI (SK-OV-3 ovarian) was over 100 µM, the TGI (SN12C renal) was over 100 µM and the TGI (UACC-62 melanoma) was 1.02 µM.
